From US7125847B1, “Mechanically activated channel blocker” (priority 2000, dated 2006)
“And” between values parts separate entries of the source, which are not always exact repeats. Equal values may be shown once.

Tested on: stretch-activated channels (SACs)
Assay: Outside-out patch clamp of stretch-activated channels in adult rat astrocytes
Type: cell-based
Protocol: This embodiment describes the effect of the peptide GsMTx-4 variant (SEQ ID NO:1) on SACs. To illustrate this, adult rat astrocytes which are known to have SACs, were used. Adult rat astrocytes were cultured according to standard methods. Briefly, activated adult astrocytes isolated from gelatin-sponge implants from adult Sprague-Dawley rat brains obtained according to the method of Langan et al. (1995, Glia, 14:174–184) were used at passage numbers 2–4. Astrocytes were maintained in DMEM, 10% fetal bovine serum and 1% Penicillin/Streptomycin and were used in experiments between 2 and 5 days after passage. Cells between passage 4 and 35 expressed SACs with the same properties Both stellate process bearing cells and flat polygonal (fibroblast-like) cells were used.
The cultured astrocytes were used for single channel and whole cell recorndings. For single channel patch clamp, patch voltage was controlled by an Axopatch 200B (Axon Instruments, Calif.) and currents were recorded directly onto computer disk via a Labmaster DMA Ver. B (Scientific Instruments, Calif.) board controlled by pClamp6-Clampex acquisition software (Axon Instruments, California). Currents were sampled at 10 KHz and low-pass filtered at 2 KHz through the 4 pole Bessel filter on the Axopatch 200B. Experimental voltage protocols were controlled by pClamp6-Clampex. All potentials are defined with respect to the extracellular surface.
Electrodes were pulled on a Model PC-84 pipette puller (Brown-Flaming Instruments, Calif.), painted with Sylgard 184 (Dow Corning Corp. Midland Mich.) and fire polished. Electrodes were filled with KCl saline (KCl 140 mM, EGTA 5 mM, MgSO4 2 mM, Hepes 10 mM, pH 7.3) and had resistances ranging from 3–8 MWBath saline consisted of NaCl 140 mM, KCl 5 mM, MgSO4 1 mM, CaCl2 1 mM, glucose 6 mM and Hepes 10 mM, pH 7.3.
Pressure and suction were applied to the pipette by a pressure clamp. Pressure values represent pressure in the pipette, i.e., the intracellular side of the membrane in outside-out patches. Suction applied to a cell-attached patch has the same sign as pressure applied to an outside-out patch. The rise time of pressure changes at the tip were determined by monitoring the rate of current change when pressure steps were applied to an electrode containing 150 mM KCl solution and placed in a water bath. The t10-90 was ˜5 ms as determined by exponential fits to the current decay. Perfusion of toxin samples was performed by a pressurized bath perfusion system BPS-8 (ALA scientific instruments, NY) with 8 separate channels.
Off-line data analysis was performed with pClamp6 analysis software and Origin 5.0. Maximal unitary channel currents were determined via Guassian fits to the peaks of all points amplitude histograms generated from records containing 1–3 channels. […] Some of these records were analyzed by determining all of the step-like changes in current during the pressure application and selecting the average maximal current level as the unitary current. The data analyzed by this method was in good agreement with the unitary current levels determined by analysis of all points amplitude histograms from single channel patches.
The outside out patches from adult astrocytes as described above were used for testing the HPLC fractions obtained in Example 1. The HPLC fractions were lyophilized, redissolved at a 1:1000 dilution and perfused onto outside out patches. […] The fraction containing the single peak in FIG. 1D was then tested for activity against SACs. […] The patch was held at −50 mV, and the pressure pulse is shown above the records.
The entire experiment is comprised of 60 pressure steps: steps 1–20 occur before GsMTx-4 application; steps 21–38 while GsMTx-4 is being perfused; steps 39–60 occur during washout. Each 500 ms pressure step was separated by 1.5 seconds at 0 pressure.
The association rate of the toxin was determined by applying GsMTx-4 to an outside-out patch while the channels were activated by stretch (FIG. 5). […]

GCLEFWWKCNPNDDKCCRPKLKCSKLFKLCNFSFGK [GsMTx-4]
time constant of current decay during GsMTx-4 application (association) (5 μM toxin, outside-out patches held at −50 mV, single exponential fit): 594 ± 10 ms
average SAC current when GsMTx-4 was applied (7 patches, −50 mV, 2.04±0.14 pA prior to application): 0.17±0.02 pA
block of SACs (HPLC fractions at 1:1000 dilution relative to whole venom, outside-out patches): the block was complete
association constant ka (assuming 1:1 binding, from time constant at 5 μM): 340000 M⁻¹ s⁻¹ and 330000 M⁻¹ s⁻¹
ratio of blocked to unblocked current I/I0 (data of FIG. 6): 0.083
dissociation constant kd (from recovery kinetics on washout): 0.21 s⁻¹
average SAC current after GsMTx-4 washout (last 8 pressure steps, 10 seconds after washout): 2.28±0.17 pA
calculated equilibrium constant KD=kd/ka (ratio of rate constants): 631 ± 240 nM
Kd (single binding site model, read-out: binding constant Kd from I/I0): 415 nM
